Results: patent US9573887B2, “Naphthalene derivative” (Daito Chemix Corporation, priority 2010, dated 2017)
Structures can show the parent of a compound that is named as a salt.

Biological target: T1, Mouse VCP (Mus musculus, UniProt Q01853)
T1 construct: histidine tag (N); made in house; host or cells: Sf-9 insect cells (baculovirus vector pVL1392)
Assay: ATPase activity of purified His-tagged VCP, [γ-32P]ATP, liberated phosphate by liquid scintillation
Assay type: biochemical
Conditions: compounds of Examples; ATPase inhibitory activity; 500 ng VCP, 100 μM ATP, 37° C., 10 minutes
In short: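 Liberated 32P-phosphate, extracted as a molybdate complex and counted by liquid scintillation, was the readout. Reactions used 500 ng Sf-9-expressed, Ni-purified His-VCP (mouse), 100 μM [γ-32P]ATP and varied test concentrations for 10 min at 37° C in HEPES pH 7.4 buffer with Mg2+ and DTT. IC50 derived by curve fitting.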

T1 sequence (Q01853 whole entry): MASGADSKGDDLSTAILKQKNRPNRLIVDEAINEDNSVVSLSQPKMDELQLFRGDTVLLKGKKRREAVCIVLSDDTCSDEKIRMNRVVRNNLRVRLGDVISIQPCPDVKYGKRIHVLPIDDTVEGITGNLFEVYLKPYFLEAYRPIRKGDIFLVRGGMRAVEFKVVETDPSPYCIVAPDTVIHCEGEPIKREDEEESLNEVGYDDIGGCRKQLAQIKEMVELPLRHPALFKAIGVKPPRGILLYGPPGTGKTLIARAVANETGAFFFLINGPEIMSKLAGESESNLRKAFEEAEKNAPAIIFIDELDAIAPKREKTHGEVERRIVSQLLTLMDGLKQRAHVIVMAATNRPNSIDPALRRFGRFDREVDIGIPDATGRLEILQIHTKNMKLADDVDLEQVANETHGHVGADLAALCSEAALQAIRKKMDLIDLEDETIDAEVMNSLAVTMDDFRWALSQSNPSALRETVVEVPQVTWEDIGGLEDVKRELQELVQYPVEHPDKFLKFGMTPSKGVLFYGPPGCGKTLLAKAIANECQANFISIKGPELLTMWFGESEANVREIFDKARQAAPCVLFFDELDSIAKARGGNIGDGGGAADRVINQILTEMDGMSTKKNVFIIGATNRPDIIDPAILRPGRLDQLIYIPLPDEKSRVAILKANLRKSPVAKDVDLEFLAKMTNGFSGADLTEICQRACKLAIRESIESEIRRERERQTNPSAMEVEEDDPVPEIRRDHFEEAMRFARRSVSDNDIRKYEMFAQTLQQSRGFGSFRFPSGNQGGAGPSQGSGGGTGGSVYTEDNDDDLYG

| Compound | IC50 [nM] |
| --- | --- |
| Cc1cc(/N=N/c2cc(S(=O)(=O)O)c3ccccc3c2N)cnc1-c1ccccc1-c1ccccc1 [Example 86, 4-amino-3-(6-biphenyl-2-yl-5-methylpyridine-3-ylazo)naphthalene-1-sulfonic acid sodium salt] | 552 |
| Nc1c(/N=N/c2cnc(Cl)c(-c3ccccc3)c2)cc(S(=O)(=O)O)c2ccccc12 [Example 88, 4-amino-3-(6-chloro-5-phenylpyridine-3-ylazo)naphthalene-1-sulfonic acid sodium salt] | 348 |
| Nc1c(/N=N/c2cnc(-c3ccccc3)c(-c3ccccc3)c2)cc(S(=O)(=O)O)c2ccccc12 [Example 89, 4-amino-3-(5,6-diphenylpyridine-3-ylazo)naphthalene-1-sulfonic acid sodium salt] | 501 |
| Cc1cccc(C)c1-c1ccc(/N=N/c2cc(S(=O)(=O)O)c3ccccc3c2N)cn1 [Example 90, 4-amino-3-[6-(2,6-dimethylphenyl)pyridine-3-ylazo]naphthalene-1-sulfonic acid sodium salt] | 112 |
| Cc1cc(C=O)c(OC(C)C)c(-c2ccc(/N=N/c3cc(S(=O)(=O)O)c4ccccc4c3N)cn2)c1 [Example 91, 4-amino-3-[6-(3-formyl-2-isopropoxy-5-methylphenyl)pyridine-3-ylazo]naphthalene-1-sulfonic acid sodium salt] | 212 |
| CCCCOc1c(C=O)cc(C)cc1-c1ccc(/N=N/c2cc(S(=O)(=O)O)c3ccccc3c2N)cn1 [Example 92, 4-amino-3-[6-(3-formyl-2-butoxy-5-methylphenyl)pyridine-3-ylazo]naphthalene-1-sulfonic acid sodium salt] | 161 |
| Nc1c(/N=N/c2ccccc2F)cc(S(=O)(=O)O)c2ccccc12 [Example 94, 4-amino-3-(2-fluorophenylazo)naphthalene-1-sulfonic acid sodium salt] | 1110 |
| Nc1c(/N=N/c2ccc(NC(=O)c3cccs3)cc2)cc(S(=O)(=O)O)c2ccccc12 [Example 97, 4-amino-3-[4-[(2-thienylcarbonyl)amino]phenylazo]-1-naphthalenesulfonic acid sodium salt] | 804 |
| Nc1c(/N=N/c2ccc(Cl)cc2Cl)cc(S(=O)(=O)O)c2ccccc12 [Example 111, 4-amino-3-(2,4-dichlorophenylazo)naphthalene-1-sulfonic acid sodium salt] | 244 |
| Nc1c(/N=N/c2ccc(Br)cc2Br)cc(S(=O)(=O)O)c2ccccc12 [Example 113, 4-amino-3-(2,4-dibromophenylazo)naphthalene-1-sulfonic acid sodium salt] | 266 |
| Nc1c(/N=N/c2c(Br)cc(Br)cc2Br)cc(S(=O)(=O)O)c2ccccc12 [Example 114, 4-amino-3-(2,4,6-tribromophenylazo)naphthalene-1-sulfonic acid sodium salt] | 99 |
| Nc1c(/N=N/c2c(Cl)cc(Cl)cc2Cl)cc(S(=O)(=O)O)c2ccccc12 [Example 115, 4-amino-3-(2,4,6-trichlorophenylazo)naphthalene-1-sulfonic acid sodium salt] | 297 |
| Nc1c(/N=N/c2ccc(F)cc2F)cc(S(=O)(=O)O)c2ccccc12 [Example 116, 4-amino-3-(2,4-difluorophenylazo)naphthalene-1-sulfonic acid sodium salt] | 1230 |
| Nc1c(/N=N/c2ccc(Cl)cc2Br)cc(S(=O)(=O)O)c2ccccc12 [Example 117, 4-amino-3-(2-bromo-4-chlorophenylazo)naphthalene-1-sulfonic acid sodium salt] | 230 |

The next lines start with the values.

| IC50 [nM] | Compound |
| --- | --- |
| 762 | Nc1c(/N=N/c2ccccc2)cc(S(=O)(=O)O)c2ccccc12 [Example 93, 4-amino-3-phenylazonaphthalene-1-sulfonic acid sodium salt] |
| 393 | Nc1c(/N=N/c2ccc(C(F)(F)F)cc2)cc(S(=O)(=O)O)c2ccccc12 [Example 95, 4-amino-3-(4-trifluoromethylphenylazo)naphthalene-1-sulfonic acid sodium salt] |
| 1630 | Nc1c(/N=N/c2cccc([N+](=O)[O-])c2)cc(S(=O)(=O)O)c2ccccc12 [Example 96, 4-amino-3-(3-nitrophenylazo)naphthalene-1-sulfonic acid sodium salt] |
| 591 | Nc1c(/N=N/c2ccccc2Cl)cc(S(=O)(=O)O)c2ccccc12 [Example 98, 4-amino-3-(2-chlorophenylazo)naphthalene-1-sulfonic acid sodium salt] |
| 1390 | Nc1c(/N=N/c2cccc(Cl)c2)cc(S(=O)(=O)O)c2ccccc12 [Example 99, 4-amino-3-(3-chlorophenylazo)naphthalene-1-sulfonic acid sodium salt] |
| 408 | Nc1c(/N=N/c2ccc(Cl)cc2)cc(S(=O)(=O)O)c2ccccc12 [Example 100, 4-amino-3-(4-chlorophenylazo)naphthalene-1-sulfonic acid sodium salt] |
| 1760 | Nc1c(/N=N/c2cccc(F)c2)cc(S(=O)(=O)O)c2ccccc12 [Example 101, 4-amino-3-(3-fluorophenylazo)naphthalene-1-sulfonic acid sodium salt] |
| 904 | Nc1c(/N=N/c2ccc(F)cc2)cc(S(=O)(=O)O)c2ccccc12 [Example 102, 4-amino-3-(4-fluorophenylazo)naphthalene-1-sulfonic acid sodium salt] |
| 887 | CCOC(=O)c1ccc(/N=N/c2cc(S(=O)(=O)O)c3ccccc3c2N)cc1 [Example 103, ethyl 4-(1-amino-4-sulfonaphthalene-2-ylazo)benzoate sodium salt] |
| 2070 | Nc1c(/N=N/c2ccc(C(=O)O)cc2)cc(S(=O)(=O)O)c2ccccc12 [Example 104, 4-(1-amino-4-sulfonaphthalene-2-ylazo)benzoic acid disodium salt] |
| 238 | N#Cc1ccccc1/N=N/c1cc(S(=O)(=O)O)c2ccccc2c1N [Example 105, 4-amino-3-(2-cyanophenylazo)naphthalene-1-sulfonic acid sodium salt] |
| 2260 | N#Cc1cccc(/N=N/c2cc(S(=O)(=O)O)c3ccccc3c2N)c1 [Example 106, 4-amino-3-(3-cyanophenylazo)naphthalene-1-sulfonic acid sodium salt] |
| 540 | N#Cc1ccc(/N=N/c2cc(S(=O)(=O)O)c3ccccc3c2N)cc1 [Example 107, 4-amino-3-(4-cyanophenylazo)naphthalene-1-sulfonic acid sodium salt] |
| 288 | Nc1c(/N=N/c2ccccc2Br)cc(S(=O)(=O)O)c2ccccc12 [Example 108, 4-amino-3-(2-bromophenylazo)naphthalene-1-sulfonic acid sodium salt] |
| 856 | Nc1c(/N=N/c2cccc(Br)c2)cc(S(=O)(=O)O)c2ccccc12 [Example 109, 4-amino-3-(3-bromophenylazo)naphthalene-1-sulfonic acid sodium salt] |
| 226 | Nc1c(/N=N/c2ccc(Br)cc2)cc(S(=O)(=O)O)c2ccccc12 [Example 110, 4-amino-3-(4-bromophenylazo)naphthalene-1-sulfonic acid sodium salt] |
| 526 | Nc1c(/N=N/c2ccc(Cl)c(Cl)c2)cc(S(=O)(=O)O)c2ccccc12 [Example 112, 4-amino-3-(3,4-dichlorophenylazo)naphthalene-1-sulfonic acid sodium salt] |
